Data from ChEMBL document CHEMBL5247595, “Synthesis, antitumor, and apoptosis-inducing activities of novel 5-arylidenethiazolidine-2,4-dione derivatives: Histone deacetylases inhibitory activity and molecular docking study” (Eur J Med Chem, 2022).
pIC50: −log10 of the molar value.

How the values were obtained:
MCF7 [1] = assay: Induction of cell cycle arrest in human MCF7 cells assessed as accumulation at sub-G1 phase by PI-staining based flow cytometry (reference value: 13.2%); type: functional
MCF7 [2] = assay: cells; type: functional, cell-based; conditions: Homo sapiens, MCF7, 48 h
Description: Cytotoxicity against human MCF7 cells assessed as inhibition of cell growth measured after 48 hrs by MTT assay

HeLa = assay: cells; type: functional, cell-based; conditions: Homo sapiens, 48 h
Description: Cytotoxicity against human HeLa cells assessed as inhibition of cell growth measured after 48 hrs by MTT assay

MCF7 [3] = assay: Induction of cell cycle arrest in human MCF7 cells assessed as accumulation at S phase by PI-staining based flow cytometry (reference value: 6.3%); type: functional
HepG2 [4] = assay: Induction of cell cycle arrest in human HepG2 cells assessed as accumulation at sub-G1 phase by PI-staining based flow cytometry (reference value: 12.6%); type: functional
Histone deacetylase 1 = Histone deacetylase 1 (Homo sapiens, UniProt Q13547); assay: Inhibition of HDAC1 (unknown origin) by ELISA assay
Histone deacetylase 1, sequence (Q13547 whole entry): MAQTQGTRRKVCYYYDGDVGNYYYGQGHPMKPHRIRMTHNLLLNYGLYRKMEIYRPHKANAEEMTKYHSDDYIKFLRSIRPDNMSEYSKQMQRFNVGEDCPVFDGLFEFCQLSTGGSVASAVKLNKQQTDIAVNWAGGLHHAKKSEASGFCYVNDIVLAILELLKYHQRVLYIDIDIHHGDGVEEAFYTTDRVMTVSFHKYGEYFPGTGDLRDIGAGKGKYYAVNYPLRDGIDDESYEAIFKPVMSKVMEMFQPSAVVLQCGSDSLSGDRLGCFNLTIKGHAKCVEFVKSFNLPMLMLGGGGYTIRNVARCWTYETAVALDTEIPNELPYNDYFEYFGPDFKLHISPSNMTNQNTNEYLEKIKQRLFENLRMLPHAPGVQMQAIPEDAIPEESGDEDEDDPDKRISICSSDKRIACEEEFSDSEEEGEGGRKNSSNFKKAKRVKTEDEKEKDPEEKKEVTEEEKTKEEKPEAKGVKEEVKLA

HCT-116 [5] = assay: cells; type: functional, cell-based; conditions: Homo sapiens, HCT-116, 48 h
Description: Cytotoxicity against human HCT-116 cells assessed as inhibition of cell growth measured after 48 hrs by MTT assay

HCT-116 [6] = assay: Induction of cell cycle arrest in human HCT-116 cells assessed as accumulation at sub-G1 phase by PI-staining based flow cytometry (reference value: 12%); type: functional
MCF7 [7] = assay: Induction of apoptosis in human MCF7 cells assessed as fold increase in caspases-3 expression by ELISA assay; type: functional
HCT-116 [8] = assay: Induction of cell cycle arrest in human HCT-116 cells assessed as accumulation at G0/G1 phase by PI-staining based flow cytometry (reference value: 47%); type: functional
MCF7 [9] = assay: Induction of cell cycle arrest in human MCF7 cells assessed as accumulation at G0/G1 phase by PI-staining based flow cytometry (reference value: 40.8%); type: functional
HCT-116 [10] = assay: Induction of apoptosis in human HCT-116 cells assessed as fold increase in BAX expression by ELISA assay; type: functional
[11] = target: T1, Protein deacetylase HDAC6 (Homo sapiens, UniProt Q9UBN7); assay: Inhibition of HDAC6 (unknown origin) by ELISA assay
T1 sequence (Q9UBN7 whole entry): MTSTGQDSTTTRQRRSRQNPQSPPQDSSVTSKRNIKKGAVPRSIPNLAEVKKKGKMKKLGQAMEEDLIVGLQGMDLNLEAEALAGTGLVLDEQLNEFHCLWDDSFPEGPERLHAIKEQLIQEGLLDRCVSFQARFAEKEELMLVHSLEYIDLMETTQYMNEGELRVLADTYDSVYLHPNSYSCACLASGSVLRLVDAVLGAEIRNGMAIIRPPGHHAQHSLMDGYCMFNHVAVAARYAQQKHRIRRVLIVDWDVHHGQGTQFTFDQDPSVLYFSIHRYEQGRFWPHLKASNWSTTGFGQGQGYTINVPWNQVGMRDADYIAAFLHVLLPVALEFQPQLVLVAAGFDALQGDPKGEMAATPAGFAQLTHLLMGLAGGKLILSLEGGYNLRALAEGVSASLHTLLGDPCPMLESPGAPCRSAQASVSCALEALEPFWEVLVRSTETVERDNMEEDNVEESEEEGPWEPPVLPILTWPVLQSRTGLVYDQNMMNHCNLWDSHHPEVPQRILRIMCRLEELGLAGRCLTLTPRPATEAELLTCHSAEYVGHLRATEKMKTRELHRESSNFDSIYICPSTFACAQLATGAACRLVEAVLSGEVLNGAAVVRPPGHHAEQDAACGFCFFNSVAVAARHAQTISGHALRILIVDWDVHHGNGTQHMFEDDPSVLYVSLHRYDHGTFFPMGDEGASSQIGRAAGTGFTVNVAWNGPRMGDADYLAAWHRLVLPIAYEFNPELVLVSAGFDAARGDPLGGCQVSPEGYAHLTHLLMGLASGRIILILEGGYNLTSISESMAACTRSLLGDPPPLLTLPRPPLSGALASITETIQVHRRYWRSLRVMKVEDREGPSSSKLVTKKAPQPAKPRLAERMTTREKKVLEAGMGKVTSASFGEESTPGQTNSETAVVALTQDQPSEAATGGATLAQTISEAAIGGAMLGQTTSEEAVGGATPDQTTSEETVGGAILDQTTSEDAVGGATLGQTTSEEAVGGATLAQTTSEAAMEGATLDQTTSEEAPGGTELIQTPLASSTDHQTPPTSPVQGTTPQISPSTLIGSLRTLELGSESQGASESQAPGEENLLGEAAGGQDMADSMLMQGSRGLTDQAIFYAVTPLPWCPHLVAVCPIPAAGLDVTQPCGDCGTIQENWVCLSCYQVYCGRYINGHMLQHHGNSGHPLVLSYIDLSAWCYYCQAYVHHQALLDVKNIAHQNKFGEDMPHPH

MCF7 [12] = assay: Induction of apoptosis in human MCF7 cells assessed as fold increase in BAX expression by ELISA assay; type: functional
HCT-116 [13] = assay: Induction of apoptosis in human HCT-116 cells assessed as fold increase in caspases-3 expression by ELISA assay; type: functional
HepG2 [14] = assay: Induction of apoptosis in human HepG2 cells assessed as fold increase in caspases-7 expression by ELISA assay; type: functional
HepG2 [15] = assay: Induction of apoptosis in human HepG2 cells assessed as fold increase in caspases-3 expression by ELISA assay; type: functional
HepG2 [16] = assay: Induction of apoptosis in human HepG2 cells assessed as fold increase in BAX expression by ELISA assay; type: functional
HCT-116 [17] = assay: Induction of cell cycle arrest in human HCT-116 cells assessed as accumulation at S phase by PI-staining based flow cytometry (reference value: 7.1%); type: functional
HCT-116 [18] = assay: Induction of apoptosis in human HCT-116 cells assessed as fold increase in caspases-7 expression by ELISA assay; type: functional
HepG2 [19] = assay: Induction of cell cycle arrest in human HepG2 cells assessed as accumulation at S phase by PI-staining based flow cytometry (reference value: 5.8%); type: functional
HCT-116 [20] = assay: Induction of cell cycle arrest in human HCT-116 cells assessed as accumulation at G2/M phase by PI-staining based flow cytometry (reference value: 29.2%); type: functional
in vitro = conditions: human, WI-38 cells
Description: Cytotoxicity against human WI-38 cells assessed as inhibition of cell growth measured after 48 hrs by MTT assay

MCF7 [21] = assay: Induction of cell cycle arrest in human MCF7 cells assessed as accumulation at G2/M phase by PI-staining based flow cytometry (reference value: 35.3%); type: functional
HepG2 [22] = assay: Induction of cell cycle arrest in human HepG2 cells assessed as accumulation at G0/G1 phase by PI-staining based flow cytometry (reference value: 35.2%); type: functional
HepG2 [23] = assay: Induction of cell cycle arrest in human HepG2 cells assessed as accumulation at G2/M phase by PI-staining based flow cytometry (reference value: 41.5%); type: functional
Histone deacetylase 2 = Histone deacetylase 2 (Homo sapiens, UniProt Q92769); assay: Inhibition of HDAC2 (unknown origin) by ELISA assay
Histone deacetylase 2, sequence (Q92769 whole entry): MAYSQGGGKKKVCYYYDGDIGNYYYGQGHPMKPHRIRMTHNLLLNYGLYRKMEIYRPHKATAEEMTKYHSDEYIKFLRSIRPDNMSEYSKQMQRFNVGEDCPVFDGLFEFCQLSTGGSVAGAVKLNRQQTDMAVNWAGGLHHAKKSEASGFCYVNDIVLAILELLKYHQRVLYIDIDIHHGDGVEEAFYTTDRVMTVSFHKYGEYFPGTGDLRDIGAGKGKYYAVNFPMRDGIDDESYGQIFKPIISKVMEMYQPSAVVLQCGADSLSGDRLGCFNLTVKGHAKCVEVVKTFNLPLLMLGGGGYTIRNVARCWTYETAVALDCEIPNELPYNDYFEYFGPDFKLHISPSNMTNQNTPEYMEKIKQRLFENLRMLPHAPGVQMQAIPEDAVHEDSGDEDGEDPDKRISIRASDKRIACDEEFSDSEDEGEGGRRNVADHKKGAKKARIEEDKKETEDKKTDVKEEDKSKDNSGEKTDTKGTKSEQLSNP

MCF7 [24] = assay: Induction of apoptosis in human MCF7 cells assessed as fold increase in caspases-7 expression by ELISA assay; type: functional
PC-3 = assay: Cytotoxicity against human PC-3 cells assessed as inhibition of cell growth measured after 48 hrs by MTT assay; type: functional, cell-based; conditions: PC-3, 48 h
HepG2 [25] = assay: cells; type: functional, cell-based; conditions: Homo sapiens, HepG2, 48 h
Description: Cytotoxicity against human HepG2 cells assessed as inhibition of cell growth measured after 48 hrs by MTT assay

Histone deacetylase 8 = target: T2, Histone deacetylase 8 (Homo sapiens, UniProt Q9BY41); assay: Inhibition of HDAC8 (unknown origin) by ELISA assay
T2 sequence (Q9BY41 whole entry): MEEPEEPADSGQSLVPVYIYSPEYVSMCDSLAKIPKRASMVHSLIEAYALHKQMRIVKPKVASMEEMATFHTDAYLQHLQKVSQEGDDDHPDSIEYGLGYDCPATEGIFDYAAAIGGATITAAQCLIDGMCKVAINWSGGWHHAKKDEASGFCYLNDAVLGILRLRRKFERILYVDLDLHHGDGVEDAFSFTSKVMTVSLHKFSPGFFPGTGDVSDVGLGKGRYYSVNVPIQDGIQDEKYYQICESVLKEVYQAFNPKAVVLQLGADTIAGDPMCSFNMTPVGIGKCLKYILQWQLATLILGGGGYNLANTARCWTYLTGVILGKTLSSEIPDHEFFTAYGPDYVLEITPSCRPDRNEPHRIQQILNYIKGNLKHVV

## COc1ccc(/C=C2\SC(=O)N(CCNC(=O)Nc3c(C)n(C)n(-c4ccccc4)c3=O)C2=O)cc1
MCF7 [1]
  Activity: 31.7%
MCF7 [2]
  pIC50: 5.29
HeLa
  pIC50: 5.21
MCF7 [3]
  Activity: 4.8%
HepG2 [4]
  Activity: 43.4%
Histone deacetylase 1
  pIC50: 6.55
HCT-116 [5]
  pIC50: 5.50
HCT-116 [6]
  Activity: 39.5%
MCF7 [7]
  fold change (FC): 5.2
HCT-116 [8]
  Activity: 55.2%
MCF7 [9]
  Activity: 60.6%
HCT-116 [10]
  fold change (FC): 4.9
[11]
  pIC50: 6.59
MCF7 [12]
  fold change (FC): 7.013
HCT-116 [13]
  fold change (FC): 3.9
HepG2 [14]
  fold change (FC): 9.1
HepG2 [15]
  fold change (FC): 5.2
HepG2 [16]
  fold change (FC): 13.13
HCT-116 [17]
  Activity: 1.6%
HCT-116 [18]
  fold change (FC): 3.7
HepG2 [19]
  Activity: 1.6%
HCT-116 [20]
  Activity: 0%
In vitro
  IC50 at 48 h: 34.5 µM
MCF7 [21]
  Activity: 0.2%
HepG2 [22]
  Activity: 50.6%
HepG2 [23]
  Activity: 0%
Histone deacetylase 2
  pIC50: 6.08
MCF7 [24]
  fold change (FC): 6.6
PC-3
  pIC50: 4.86
HepG2 [25]
  pIC50: 5.08
Histone deacetylase 8
  pIC50: 6.29

## Cc1c(NC(=O)NCCN2C(=O)S/C(=C\c3ccc(Cl)cc3)C2=O)c(=O)n(-c2ccccc2)n1C
MCF7 [2]
  pIC50: 4.33
HeLa
  pIC50: 4.53
HCT-116 [5]
  pIC50: 4.44
In vitro
  IC50 at 48 h: 27.5 µM
PC-3
  pIC50: 4.40
HepG2 [25]
  pIC50: 4.41

## Cc1c(NC(=O)NCCN2C(=O)S/C(=C\c3ccc(Br)cc3)C2=O)c(=O)n(-c2ccccc2)n1C
MCF7 [2]
  pIC50: 4.24
HeLa
  pIC50: 4.14
HCT-116 [5]
  pIC50: 4.11
In vitro
  IC50 at 48 h: > 100 µM
PC-3
  pIC50: < 4.00
HepG2 [25]
  pIC50: 4.28

## Cc1c(NC(=O)CN2C(=O)S/C(=C\c3ccc([N+](=O)[O-])cc3)C2=O)c(=O)n(-c2ccccc2)n1C
MCF7 [2]
  pIC50: 4.08
HeLa
  pIC50: 4.11
HCT-116 [5]
  pIC50: 4.04
In vitro
  IC50 at 48 h: 43.8 µM
PC-3
  pIC50: < 4.00
HepG2 [25]
  pIC50: 4.07

## COc1ccc(/C=C2\SC(=O)N(CC(=O)Nc3c(C)n(C)n(-c4ccccc4)c3=O)C2=O)cc1
MCF7 [2]
  pIC50: 4.12
HeLa
  pIC50: 4.19
HCT-116 [5]
  pIC50: 4.15
In vitro
  IC50 at 48 h: 52.9 µM
PC-3
  pIC50: 4.03
HepG2 [25]
  pIC50: 4.16

## Cc1ccc(/C=C2\SC(=O)N(CCNC(=O)Nc3c(C)n(C)n(-c4ccccc4)c3=O)C2=O)cc1
MCF7 [2]
  pIC50: 4.43
HeLa
  pIC50: 4.65
HCT-116 [5]
  pIC50: 4.49
In vitro
  IC50 at 48 h: 48.1 µM
PC-3
  pIC50: 4.23
HepG2 [25]
  pIC50: 4.59

## COc1cc(/C=C2\SC(=O)N(CCNC(=O)Nc3c(C)n(C)n(-c4ccccc4)c3=O)C2=O)cc(OC)c1OC
MCF7 [2]
  pIC50: 5.12
HeLa
  pIC50: 4.80
Histone deacetylase 1
  pIC50: 6.46
HCT-116 [5]
  pIC50: 4.90
[11]
  pIC50: 6.32
In vitro
  IC50 at 48 h: 51.5 µM
Histone deacetylase 2
  pIC50: 5.76
PC-3
  pIC50: 4.45
HepG2 [25]
  pIC50: 4.97
Histone deacetylase 8
  pIC50: 6.46

## Cc1ccc(/C=C2\SC(=O)N(CC(=O)Nc3c(C)n(C)n(-c4ccccc4)c3=O)C2=O)cc1
MCF7 [2]
  pIC50: 4.18
HeLa
  pIC50: 4.28
HCT-116 [5]
  pIC50: 4.32
In vitro
  IC50 at 48 h: 83.7 µM
PC-3
  pIC50: 4.34
HepG2 [25]
  pIC50: 4.24

## Cc1c(NC(=O)NCCN2C(=O)S/C(=C\c3ccc([N+](=O)[O-])cc3)C2=O)c(=O)n(-c2ccccc2)n1C
MCF7 [2]
  pIC50: 4.73
HeLa
  pIC50: 4.42
Histone deacetylase 1
  pIC50: 6.80
HCT-116 [5]
  pIC50: 4.35
[11]
  pIC50: 6.84
In vitro
  IC50 at 48 h: 76.4 µM
Histone deacetylase 2
  pIC50: 6.28
PC-3
  pIC50: 4.16
HepG2 [25]
  pIC50: 4.85
Histone deacetylase 8
  pIC50: 6.61

## Cc1c(NC(=O)CN2C(=O)S/C(=C\c3ccc(Cl)cc3)C2=O)c(=O)n(-c2ccccc2)n1C
MCF7 [2]
  pIC50: 4.37
HeLa
  pIC50: 4.70
HCT-116 [5]
  pIC50: 4.64
In vitro
  IC50 at 48 h: 54.4 µM
PC-3
  pIC50: 4.54
HepG2 [25]
  pIC50: 4.50

## Cc1c(NC(=O)CN2C(=O)S/C(=C\c3ccc(Br)cc3)C2=O)c(=O)n(-c2ccccc2)n1C
MCF7 [2]
  pIC50: 4.62
HeLa
  pIC50: 5.03
Histone deacetylase 1
  pIC50: 6.34
HCT-116 [5]
  pIC50: 5.11
[11]
  pIC50: 5.79
In vitro
  IC50 at 48 h: 66.7 µM
Histone deacetylase 2
  pIC50: 5.41
PC-3
  pIC50: 4.77
HepG2 [25]
  pIC50: 4.72
Histone deacetylase 8
  pIC50: 5.96

## O=C(CCCCCCC(=O)Nc1ccccc1)NO [VORINOSTAT]
PC-3
  pIC50: 5.44
